In ChEMBL document CHEMBL1127130, “Peptidomimetic inhibitors of renin incorporating topographically modified isosteres spanning the P1( P3)-P1' sites” (Bioorg Med Chem Lett, 1993):

Molecular target: T1, Renin (Homo sapiens) (UniProt P00797)
T1 sequence (whole entry): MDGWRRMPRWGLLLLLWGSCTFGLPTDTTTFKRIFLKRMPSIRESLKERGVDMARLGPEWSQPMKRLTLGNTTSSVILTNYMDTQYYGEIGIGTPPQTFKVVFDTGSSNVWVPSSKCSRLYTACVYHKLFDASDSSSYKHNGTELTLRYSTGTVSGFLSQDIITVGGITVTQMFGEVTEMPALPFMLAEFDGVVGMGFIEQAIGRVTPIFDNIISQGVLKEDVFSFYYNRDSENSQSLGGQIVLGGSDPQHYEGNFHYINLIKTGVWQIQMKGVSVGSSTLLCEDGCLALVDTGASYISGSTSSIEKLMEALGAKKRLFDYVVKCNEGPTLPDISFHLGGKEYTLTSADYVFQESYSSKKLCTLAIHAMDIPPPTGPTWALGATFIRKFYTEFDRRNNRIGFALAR
Experiment: The compound was evaluated for inhibitory activity against monkey plasma renin at concentration of […]
Format: cell-free
Conditions: Cercopithecidae, target entry is the homologue from another species

C=CC[C@H](NC(=O)CNS(=O)(=O)N1CCOCC1)C(=O)N[C@@H](CC1CCC(CCC(C)C)CC1)[C@@H](O)[C@@H](O)CC(C)C (stereo partly specified)
inhibition: 29%
